Among the test systems are OVCAR-8; UACC-62; ACHN; SN12C; OVCAR-3; HT-29; SF-295; UO-31; HOP-92; TK-10; SK-OV-3; SNB-75; CCRF-CEM; MOLT-4; SK-MEL-28; COLO 205; SW-620.
What all share (assay): NCI tumour cell line growth inhibition, 48 h

This is an account of results in ChEMBL document CHEMBL1201862, “PubChem BioAssay data set” (2004).

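In this assay, cells in 96-well plates receive the compound at five concentrations for 48 hours. Endpoints are linearly interpolated between the surrounding concentrations. GI50: concentration for 50% inhibition of growth.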 Calls of active or inactive are those of the source. No stated cut-off is given here; in the data, active = GI50 up to about 1.1 µM and inactive = higher. Bounds are passed on as bounds.

For the compound `c1ccc(SC(CCCCOC2CCCCO2)Sc2ccccc2)cc1` (configuration not stated), the GI50 in the assay on OVCAR-8 was 87.5 µM (inactive); with UACC-62, > 100 µM (inactive); in the assay on ACHN, 59.7 µM (inactive); with SN12C, > 100 µM (inactive); in the assay with OVCAR-3, 56.5 µM (inactive); in the assay with HT-29, 52 µM (inactive). Also, the GI50 in the assay on SF-295 is > 100 µM (inactive); in the assay on UO-31, 13.4 µM (inactive); in the assay on HOP-92, 11.8 µM (inactive); in the assay on TK-10 it was > 100 µM (inactive); with SK-OV-3, > 100 µM (inactive); in the assay on SNB-75, 49.8 µM (inactive). In addition, the GI50 was 29.2 µM (inactive) in the assay with CCRF-CEM; 23.3 µM (inactive) with MOLT-4; 64.3 µM (inactive) with SK-MEL-28; 94.6 µM (inactive) with COLO 205; 76.4 µM (inactive) in the assay on SW-620.
For `Cc1cc2c(C)n(Cc3ccccc3Cl)nc2c(C(=O)O)c1C`, the GI50 in the assay on OVCAR-8, in the assay on UACC-62, in the assay on ACHN, in the assay with SN12C, in the assay on OVCAR-3 and with HT-29 was > 100 µM (inactive) each time. The GI50 with SF-295, with UO-31, in the assay with HOP-92, with TK-10, in the assay with SK-OV-3 and in the assay with SNB-75 was > 100 µM (inactive) in each case. In addition, the GI50 was > 100 µM (inactive) in the assay on CCRF-CEM; > 100 µM (inactive) in the assay with MOLT-4; > 100 µM (inactive) in the assay on SK-MEL-28; > 10 µM (inactive) in the assay on COLO 205; > 100 µM (inactive) in the assay on SW-620.
As to `O=C1c2ccccc2C2C1N2C(=O)C(F)(F)F` (configuration not stated), the GI50 in the assay with OVCAR-8 was > 100 µM (inactive); in the assay with UACC-62 it was > 100 µM (inactive); with ACHN it was > 100 µM (inactive); with SN12C, > 100 µM (inactive); with OVCAR-3, > 100 µM (inactive); in the assay with HT-29, 74.8 µM (inactive). In addition, the GI50 with SF-295, with UO-31, in the assay on HOP-92, in the assay with TK-10, in the assay with SK-OV-3 and with SNB-75 was > 100 µM (inactive) throughout. For the same compound, the GI50 with CCRF-CEM was 25.9 µM (inactive); in the assay on MOLT-4 it was > 100 µM (inactive); with SK-MEL-28, > 100 µM (inactive); in the assay with COLO 205, > 100 µM (inactive); in the assay with SW-620, > 100 µM (inactive).
As to `CC(C)C(=S)N(C)O`, the GI50 with OVCAR-8 was 13.9 µM (inactive); with UACC-62, 10.1 µM (inactive); with ACHN it was 31 µM (inactive); with SN12C, 26.6 µM (inactive); in the assay on OVCAR-3, 2.82 µM (inactive); with HT-29, 1.46 µM (inactive). Besides, the GI50 with SF-295 was 16.8 µM (inactive); in the assay on UO-31, 9.64 µM (inactive); with HOP-92, 47.8 µM (inactive); with TK-10 it was > 51.3 µM (inactive); in the assay with SK-OV-3, 55.3 µM (inactive); in the assay on SNB-75, 22.4 µM (inactive). For the same compound, the GI50 in the assay with CCRF-CEM is 0.502 µM (active); in the assay with MOLT-4, 0.809 µM (active); with SK-MEL-28, 37.6 µM (inactive); in the assay on COLO 205 it was 0.35 µM (active); in the assay on SW-620 it was 1.52 µM (inactive).
Turning to `CC(=O)OC1COC(Nc2ccc(C(C)=O)cc2)C(OC(C)=O)C1OC(C)=O` (configuration not stated), the GI50 in the assay with OVCAR-8, in the assay on UACC-62, in the assay with ACHN, in the assay on SN12C, in the assay on OVCAR-3 and in the assay on HT-29 was > 100 µM (inactive) throughout. The GI50 in the assay on SF-295, in the assay with UO-31, with HOP-92, in the assay on TK-10, in the assay on SK-OV-3 and in the assay with SNB-75 was > 100 µM (inactive) each time. Besides, the GI50 with CCRF-CEM, with MOLT-4, with SK-MEL-28, in the assay on COLO 205 and in the assay with SW-620 was > 100 µM (inactive) throughout.
Consider `Cc1ccc(S(=O)(=O)OCCn2cnc3nc(NC(=O)c4ccccc4)[nH]c(=O)c32)cc1`, for which the GI50 with OVCAR-8, in the assay on UACC-62, in the assay with ACHN, in the assay with SN12C, with OVCAR-3 and in the assay on HT-29 was > 100 µM (inactive) throughout. In addition, the GI50 in the assay on SF-295, in the assay on UO-31, in the assay with HOP-92, with TK-10, in the assay with SK-OV-3 and with SNB-75 was > 100 µM (inactive) throughout. The GI50 in the assay on CCRF-CEM, in the assay with SK-MEL-28, in the assay on COLO 205 and in the assay on SW-620 was > 100 µM (inactive) throughout.
Turning to `CCOC(=O)C1=C(OC(OCC)C(CC)[Se]c2ccccc2)CCCC1` (configuration not stated), the GI50 with OVCAR-8 was 19.1 µM (inactive); in the assay with UACC-62, 19.8 µM (inactive); in the assay on ACHN, 28.1 µM (inactive); in the assay on SN12C, 14.6 µM (inactive); in the assay on OVCAR-3 it was 21.1 µM (inactive); in the assay with HT-29, 24.7 µM (inactive). The GI50 was 19.1 µM (inactive) in the assay on SF-295; 35.3 µM (inactive) in the assay on UO-31; 21.2 µM (inactive) with HOP-92; > 100 µM (inactive) in the assay on TK-10; > 100 µM (inactive) in the assay on SK-OV-3; 16.9 µM (inactive) in the assay with SNB-75. Moreover, the GI50 with CCRF-CEM was 11.4 µM (inactive); in the assay on MOLT-4, 14.7 µM (inactive); in the assay on SK-MEL-28, 40.5 µM (inactive); in the assay with COLO 205, 34.7 µM (inactive).
Consider `CCOC(=O)CNC(=O)OCc1ccccc1`, for which the GI50 in the assay on OVCAR-8, in the assay with UACC-62, in the assay with ACHN, in the assay on SN12C, in the assay with OVCAR-3 and with HT-29 was > 100 µM (inactive) in each case. For the same compound, the GI50 in the assay with SF-295, with UO-31, in the assay with HOP-92, with TK-10, with SK-OV-3 and in the assay on SNB-75 was > 100 µM (inactive) each time. Further, the GI50 with CCRF-CEM, in the assay with MOLT-4, with SK-MEL-28, in the assay with COLO 205 and with SW-620 was > 100 µM (inactive) each time.
For the compound `C1=CC=C2NCCC/N=C3/C=CC=CC=C3NCCC/N=C\2C=C1`, the GI50 in the assay on OVCAR-8, with UACC-62, in the assay with ACHN, in the assay with SN12C, in the assay with OVCAR-3 and in the assay with HT-29 was > 100 µM (inactive) throughout. For the same compound, the GI50 in the assay with SF-295, in the assay on UO-31, in the assay with HOP-92, in the assay with TK-10, in the assay on SK-OV-3 and in the assay on SNB-75 was > 100 µM (inactive) throughout. Besides, the GI50 with CCRF-CEM, in the assay on MOLT-4, with SK-MEL-28, with COLO 205 and in the assay with SW-620 was > 100 µM (inactive) in each case.
Take `COc1cc(/C=C2\[C@H]3c4c(c(OC)c(C)c(OC)c4OC)CC(C(=O)N2Cc2ccccc2)N3C)c(OC)c(C)c1OC`: the GI50 was 38.5 µM (inactive) with OVCAR-8; 16.4 µM (inactive) with UACC-62; 26.1 µM (inactive) in the assay on ACHN; 17.9 µM (inactive) with SN12C; 16.7 µM (inactive) with OVCAR-3; 19.1 µM (inactive) in the assay on HT-29. The GI50 with SF-295 is 19.8 µM (inactive); in the assay with UO-31 it was 19.3 µM (inactive); in the assay on HOP-92, 19.9 µM (inactive); in the assay with TK-10, 33.5 µM (inactive); with SK-OV-3, 29.5 µM (inactive); with SNB-75 it was 25.4 µM (inactive). The GI50 in the assay on CCRF-CEM is 19.1 µM (inactive); with MOLT-4, 19.7 µM (inactive); with SK-MEL-28, 25.4 µM (inactive); in the assay on COLO 205 it was 17.3 µM (inactive); in the assay with SW-620, 22.2 µM (inactive).
For `CCCCCCCC[N+](C)(C)Cc1ccc(C[N+](C)(C)CCCCCCCC)cc1`, the GI50 with OVCAR-8 is 15.6 µM (inactive); in the assay on UACC-62, 77.8 µM (inactive); with ACHN, > 100 µM (inactive); with SN12C, 7.33 µM (inactive); in the assay on OVCAR-3, 29.6 µM (inactive); with HT-29 it was 6.03 µM (inactive). Further, the GI50 in the assay on SF-295 was 63.4 µM (inactive); in the assay on UO-31, > 100 µM (inactive); in the assay on HOP-92 it was 32.7 µM (inactive); in the assay with TK-10 it was 86.9 µM (inactive); in the assay with SK-OV-3, 69.7 µM (inactive); in the assay on SNB-75 it was 15.8 µM (inactive). Further, the GI50 with CCRF-CEM was > 100 µM (inactive); with MOLT-4 it was 43.9 µM (inactive); in the assay with SK-MEL-28, > 100 µM (inactive); with COLO 205, 1.76 µM (inactive); in the assay on SW-620, 91.2 µM (inactive).
In the case of `O=C(O)CCCNS(=O)(=O)c1ccccc1`, the GI50 in the assay on OVCAR-8, with UACC-62, with ACHN, with SN12C, in the assay on OVCAR-3 and with HT-29 was > 100 µM (inactive) in each case. The GI50 in the assay with SF-295, in the assay on UO-31, in the assay on HOP-92, in the assay with TK-10, with SK-OV-3 and with SNB-75 was > 100 µM (inactive) throughout. The GI50 with CCRF-CEM, in the assay with MOLT-4, in the assay with SK-MEL-28, with COLO 205 and in the assay with SW-620 was > 100 µM (inactive) each time.
